Measurements as given in US20240239790A1, “7-Morpholino-1,6-Naphthyridin-5-yl Derivatives and Pharmaceutical Compositions Thereof Useful as DNA-PK Inhibitor” (adMare Therapeutics Society, priority 2021, published 2024).
Read-outs that look alike come from different tables or passages of the source.

Key:
[1] = Microsomal Stability Assay, mouse liver microsomes; format: in vitro ADME; settings: for microsomal CLint at 0.1 uM: male, CD-1, pH 7.4, mouse liver microsomes 0.1 mg/mL, 0.1 uM compound; for Microsomal Stability Mouse % rem. 60 min: mouse liver microsomes
Description: Samples were then mixed and centrifuged. Supernatants were used for HPLC-MS/MS analysis. […] Peak areas corresponding to the test compound were recorded.

[2] = test system: pDNA-PK induction in HCT116 tumour spheroids; experiment: Multicellular tumour spheroid + radiation, pDNA-PK (ser2056) inhibition, immunohistochemical endpoint, HCT116; format: cell-based; settings: Homo sapiens, 20 Gy, 20% O2
Description: Multicellular tumour spheroids determination of compound inhibition of pDNA-PK induction following radiation. Tumour spheroids were grown to approximately 0.5 mm in diameter and irradiated with 20 Gy in combination with inhibitor test compounds to determine their potency. Inhibitor concentration for 50% reduction in pDNA-PK induction (IC50) was determined via immunohistochemical staining in spheroid cryosections taken 2 hours following radiation.
(§1) Spheroid+radiation pDNA-PK. Radiation: 20 Gy. Drug: serial dilution 5 or 10 μM down to 3.5 nM (11 wells). Spheroids: 3-6 spheroids per well (300-500 μm diameter). 20% 02 and 5% CO2. 96 well plate format.
Protocol: pre-incubate 1 hours with drug, irradiate with 20 Gy, post-incubate 2 hours with drug, freeze and cryosection ×3 replicates.
Endpoint: fluorescent immunostin pDNA-PK ser2056 and image on microscope.
Analysis: determine EC50 concentration that decreases pDNA-PK induction by 50% after radiation.
Multicellular tumour spheroids determination of compound inhibition of pDNA-PK induction following radiation. Tumour spheroids were grown to approximately 0.5 mm in diameter and irradiated with 20 Gy in combination with inhibitor test compounds to determine their potency. Inhibitor concentration for 50% reduction in pDNA-PK induction (IC50) was determined via immunohistochemical staining in spheroid cryosections taken 2 hours following radiation. For cell survival endpoint 8 Gy radiation was used and 3 hours following radiation spheroids were dissociated, counted and plated for colony forming endpoint.
as §1, with “format. Endpoint: fluorescent immunostain pDNA-PK ser2056 and image on microscope. Analysis: determine EC50 concentrations that decreases pDNA-PK induction by 50% after irradiation.” for “format.”
Multicellular tumour spheroids were used to determine potency of test compounds in a 3D tissue environment using inhibition of pDNA-PK induction following radiation or cell survival as the endpoint. For the pDNA-PK endpoint HCT116 or FaDU tumour spheroids were grown to approximately 0.5 mm in diameter and irradiated with 20 Gy in combination with inhibitor test compounds to determine their potency. Experiments were carried out in 96 well plates containing 0.7 mls of MEM media containing 10% FBS and 10 mM glucose under 20% O2 & 5% CO2 at 37° C. Following dilution of compounds 1:1000 from DMSO stocks, compounds were serially diluted from 10 μM down to 3.5 nM and 5-10 spheroids added. 96 well plates were constantly stirred to avoid spheroids settling during the course of the experiment. The inhibitor concentration for 50% reduction in pDNA-PK induction (EC50) was determined via immunohistochemical staining in spheroid cryosections taken 2 hours following radiation using anti-pDNA-PK (ser 2056) and fixed immediately in formalin following sectioning. For cell survival endpoint 8 Gy radiation was used and, 3 hours following radiation, spheroids were dissociated, counted and plated for colony forming endpoint. Data presented in the table compound potency as EC50 [μM].

[3] = target: T1, DNA-PK phosphorylation at Serine 2056 (Homo sapiens, UniProt P78527); experiment: Cellular Assay for Inhibition of DNA-PK Phosphorylation at Serine 2056 in FaDu cells (sandwich ELISA, neocarzinostatin); format: cell-based; settings: pSer2056 DNA-PK
T1 construct: FaDu cells were purchased from ATCC; host or cells: FaDu
Procedure, shortened: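 FaDu cells pre-treated with compound (0.3% DMSO) for 1 h, then neocarzinostatin 1 μg/mL final added for 2 h to induce DSBs. Protein-normalised lysates read by sandwich ELISA for total and pSer2056 DNA-PK; % inhibition normalised between DMSO and NCS controls, IC50 from variable-slope log(inhibitor) fit.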

[4] = target: T2, DNA-PK (Homo sapiens, UniProt P78527); experiment: DNA-PK Assay for Biochemical Enzymatic Inhibition (ADP Glo Kinase assay); settings: DNA-PK enzyme
T2 construct: purchased Invitrogen PR9107A
Procedure, shortened: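 Human DNA-PK (25 ng) preincubated 15 min with compounds (ten three-fold dilutions) in HEPES pH 7.5, MgCl2, KCl, calf thymus DNA buffer, then substrate 434.4 μM and ATP 64.4 μM (final) for 60 min at room temperature. ADP-Glo luminescence; percent inhibition fitted by four-parameter regression for IC50.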

[5] = test system: FaDu cell line; experiment: Prodrug Activation in Hypoxic Stirred Tumour Cell Suspensions; settings: 10 μM, 4 hours
Protocol: Prodrug compounds were assayed to determine their stability and rate of activation in stirred cell suspensions under 0.2 vs 5% oxygen. Compounds were diluted 1:1000 from DMSO stocks to 10 μM final concentration in tumour cell suspensions (1% by cell volume) in MEM media containing 10% FBS, 10 mM glucose & 3.7 g/L sodium bicarbonate. Cell lines assayed included A253, A549, Detroit562, FaDu, HCT116, HEP G2, HT29, SCC25, SCC9, SiHa & TC32. Compounds and cells were then incubated for 4 hours under constant mixing at 37° C. under 5% CO2 and either 0.2 or 5% O2. Following the incubation period cellular activation of the compounds was assayed via MeOH extraction and HPLC quantification.

[6] = test system: pH2AX induction in HCT116 ATM-/- multicellular tumour spheroids; experiment: Prodrug Radiation Sensitization in Multicellular Tumour Spheroids, inhibition of pH2AX induction following radiation; format: cell-based; settings: Homo sapiens, HCT-116, 20 Gy
Procedure, shortened: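 HCT116 and FaDu spheroids (~0.5 mm diameter), ATM-deficient lines included, in MEM/10% FBS/10 mM glucose at 37 °C under 20% vs 5% oxygen with stirring. Prodrugs 10 μM down to 3.5 nM, 20 Gy irradiation. pDNA-PK (ser 2056) or pH2AX (ser 139) scored in formalin-fixed cryosections 1 or 2 h post-radiation.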

[7] = HCT-116, 2 h, spheroids, Example 8, read-out: Cell line: HCT116 Immunohistochemical endpoint pDNA-PK inhibition EC50
[8] = HCT-116, 2 hours following radiation, Example 9 Study 2, read-out: Spheroid Cell line: HCT116 Immunohistochemical endpoint pDNA-PK inhibition EC50
[9] = HCT-116, Spheroid, Cell Line: HCT115 (so in the source), 2 hours following radiation, Example 7, read-out: EC50, Immunohistochemical endpoint, pDNA-PK inhibition
[10] = neocarzinostatin 1 μg/mL, Table 1
[11] = 5% O2, inner layers, read-out: Prodrug 5% O2 Inner layers EC50
[12] = 5% O2, outer layers, read-out: Prodrug 5% O2 Outer layers EC50
[13] = 20% O2, outer layers, read-out: Prodrug 20% O2 Outer layers EC50

SMILES	microsomal CLint at 0.1 uM [1]	Microsomal Stability Mouse % rem. 60 min [1]	EC50 [2, 7]	EC50 [2, 8]	EC50 [2, 9]	IC50 [3, 10]	IC50 ([4]; Table 1)	Fraction of prodrug converted to active form, Hypoxic 0.2% O2 [5]	Fraction of prodrug converted to active form, Oxic 5% O2 [5]	IC50 ([3]; Table 2)	EC50 [6, 11]	EC50 [6, 12]	EC50 [6, 13]	IC50 ([4]; Table 2)
Cn1cc([C@H]2CC[C@@H](Oc3nc(N4CCOCC4)cc4ncc(OCCO)cc34)CC2)cn1 [Compound 5, 2-((5-(((1s,4s)-4-(1-methyl-1H-pyrazol-4-yl)cyclohexyl)oxy)-7-morpholino-1,6-naphthyridin-3-yl)oxy)ethan-1-ol]	> 116 µL/min/mg	E (% remaining = 0-25%)	1000 to 10000 nM	1000 to 10000 nM	1000 to 10000 nM	10000 to 30000 nM	1 to 10 nM							
CC1(C)CN(c2cc3ncccc3c(O[C@H]3CC[C@@H](n4ccnc4)CC3)n2)CC(C)(C)O1 [Compound 12, 4-(5-(((1s,4s)-4-(1H-imidazol-1-yl)cyclohexyl)oxy)-1,6-naphthyridin-7-yl)-2,2,6,6-tetramethylmorpholine]	> 116 µL/min/mg	E (% remaining = 0-25%)					10 to 150 nM							
NC(=O)N[C@H]1CC[C@@H](Oc2nc(N3CCOCC3)cc3ncccc23)CC1 [Compound 15, 1-((1s,4s)-4-((7-morpholino-1,6-naphthyridin-5-yl)oxy)cyclohexyl)urea]	> 116 µL/min/mg	E (% remaining = 0-25%)	1000 to 10000 nM	1000 to 10000 nM	1000 to 10000 nM	100 to 1000 nM	1 to 10 nM							
CON(C)C(=O)COc1cnc(N[C@H]2CC[C@@H](Oc3nc(N4CCOCC4)cc4ncccc34)CC2)nc1 [Compound 58, N-Methoxy-N-methyl-2-((2-(((1s,4s)-4-((7-morpholino-1,6-naphthyridin-5-yl)oxy)cyclohexyl)amino)pyrimidin-5-yl)oxy)acetamide]	> 116 µL/min/mg	E (% remaining = 0-25%)		500 to 1000 nM	500 to 1000 nM	100 to 1000 nM	< 0.5 nM							
NC(=O)COc1cnc(N[C@H]2CC[C@@H](Oc3nc(N4CCOCC4)cc4ncccc34)CC2)nc1 [Compound 60, 2-((2-(((1s,4s)-4-((7-Morpholino-1,6-naphthyridin-5-yl)oxy)cyclohexyl)amino)pyrimidin-5-yl)oxy)acetamide]	> 116 µL/min/mg	F (% remaining = 25-50%)		10 to 500 nM	10 to 500 nM	< 100 nM	< 0.5 nM							
CONC(=O)COc1cnc(N[C@H]2CC[C@@H](Oc3nc(N4CCOCC4)cc4ncccc34)CC2)nc1 [Compound 72, N-Methoxy-2-((2-(((1s,4s)-4-((7-morpholino-1,6-naphthyridin-5-yl)oxy)cyclohexyl)amino)pyrimidin-5-yl)oxy)acetamide]	> 116 µL/min/mg	E (% remaining = 0-25%)		500 to 1000 nM	500 to 1000 nM	< 100 nM	1 to 10 nM							
CN(C)C(=O)Cn1cccc1C(=O)N[C@H]1CC[C@@H](Oc2nc(N3CCOCC3)cc3ncccc23)CC1 [Compound 146, 1-(2-(dimethylamino)-2-oxoethyl)-N-((1s,4s)-4-((7-morpholino-1,6-naphthyridin-5-yl)oxy)cyclohexyl)-1H-pyrrole-2-carboxamide]	> 116 µL/min/mg	F (% remaining = 25-50%)		1000 to 10000 nM	1000 to 10000 nM	1000 to 10000 nM	1 to 10 nM							
c1ccc(-c2cnc3cc(N4CCOCC4)nc(O[C@H]4CC[C@@H](n5ccnc5)CC4)c3c2)cc1 [Compound 156, 4-(5-(((1s,4s)-4-(1H-imidazol-1-yl)cyclohexyl)oxy)-3-phenyl-1,6-naphthyridin-7-yl)morpholine]	> 116 µL/min/mg	E (% remaining = 0-25%)					10 to 150 nM							
Cc1noc(C)c1-c1cnc2cc(N3CCOCC3)nc(O[C@H]3CC[C@@H](n4ccnc4)CC3)c2c1 [Compound 157, 4-(5-(((1s,4s)-4-(1H-imidazol-1-yl)cyclohexyl)oxy)-3-(3,5-dimethylisoxazol-4-yl)-1,6-naphthyridin-7-yl)morpholine]	> 116 µL/min/mg	E (% remaining = 0-25%)				1000 to 10000 nM	1 to 10 nM							
Cn1cc(-c2cnc3cc(N4CCOCC4)nc(O[C@H]4CC[C@@H](n5ccnc5)CC4)c3c2)cn1 [Compound 158, 4-(5-(((1s,4s)-4-(1H-imidazol-1-yl)cyclohexyl)oxy)-3-(1-methyl-1H-pyrazol-4-yl)-1,6-naphthyridin-7-yl)morpholine]	> 116 µL/min/mg	E (% remaining = 0-25%)				100 to 1000 nM	10 to 150 nM							
Cn1c(COc2cnc3cc(N4CCOCC4)nc(O[C@H]4CC[C@@H](NC(=O)c5ncccn5)CC4)c3c2)cnc1[N+](=O)[O-] [LFA116, N-[4-[[3-[(3-Methyl-2-nitro-imidazol-4-yl)methoxy]-7-morpholino-1,6-naphthyridin-5-yl]oxy]cyclohexyl]pyrimidine-2-carboxamide]								A (A is 0.15 to 1)	C (C is 0.02 to 0.05)	10000 to 30000 nM	10 to 500 nM	1000 to 10000 nM	1000 to 10000 nM	10 to 150 nM
Cn1c(COc2cnc3cc(N4CCOCC4)nc(O[C@H]4CC[C@@H](Nc5ncccn5)CC4)c3c2)cnc1[N+](=O)[O-] [LFA118, N-[4-[[3-[(3-Methyl-2-nitro-imidazol-4-yl)methoxy]-7-morpholino-1,6-naphthyridin-5-yl]oxy]cyclohexyl]pyrimidin-2-amine]								A (A is 0.15 to 1)	C (C is 0.02 to 0.05)	10000 to 30000 nM	10 to 500 nM	500 to 1000 nM	1000 to 10000 nM	10 to 150 nM
